Converted amounts (≈) assume the structure as drawn. “And” between values parts separate entries of the source, which are not always exact repeats. Equal values may be shown once. The source made the active and inactive calls. The rule behind the calls is not given here.
How the values were obtained:
Mus musculus [1] = assay: Toxicity in human Hep3B cells xenografted athymic nude mouse assessed as induction of necrotic damage in liver at 10 mg/kg/day, ip for 4 consecutive days; assay type: organism-based, Hep 3B2; parameters: route intraperitoneal; conditions: in vivo
Mus musculus [2] = assay: Toxicity in human Hep3B cells xenografted athymic nude mouse assessed as induction of necrotic damage in kidney at 10 mg/kg/day, ip for 4 consecutive days; assay type: organism-based, Hep 3B2; parameters: route intraperitoneal; conditions: in vivo
[3] = Cytotoxicity against human Hep3B cells after 48 hrs by SRB assay; assay type: functional, cell-based, Hep 3B2
Hep 3B2 = assay: Antitumor activity against human Hep3B cells xenografted in athymic nude mouse assessed as retardation of tumor growth at 10 mg/kg/day, ip for 4 consecutive days; assay type: functional, organism-based
[4] = Homo sapiens, Hep3B, 48 h, read-out: IC50

| Structure (SMILES) | Activity (Mus musculus [1]) | Activity (Mus musculus [2]) | IC50 [3, 4] [µg/mL] | IC50 ([3]; hep 3b2) | inhibition (Hep 3B2) |
| --- | --- | --- | --- | --- | --- |
| O=P(c1ccccc1)(c1ccccc1)c1ccc2ccccc2c1-c1c(P(=O)(c2ccccc2)c2ccccc2)ccc2ccccc12 | Non-toxic | Non-toxic | 14 (≈ 21.4 µM) | 12 µg/mL (≈ 18.3 µM) | Active |
| c1ccc(P(c2ccccc2)c2ccc3ccccc3c2-c2c(P(c3ccccc3)c3ccccc3)ccc3ccccc23)cc1 | – | – | > 50 | – | – |
| COc1cc(P(=O)(c2ccccc2)c2ccccc2)c(-c2c(P(=O)(c3ccccc3)c3ccccc3)cc(OC)nc2OC)c(OC)n1 | – | – | 47 (≈ 69.5 µM) | 43 µg/mL and 42 µg/mL | – |
| COc1cc(P(c2ccccc2)c2ccccc2)c(-c2c(P(c3ccccc3)c3ccccc3)cc(OC)nc2OC)c(OC)n1 | – | – | > 50 | – | – |

Reference: ChEMBL document CHEMBL1275318, “The preparation of bi-functional organophosphine oxides as potential antitumor agents” (Eur J Med Chem, 2010)
